{
  "source": "patent US11674182B2",
  "about": "“Biomarker for HER2-positive cancer and anti-HER2 therapy and applications thereof” (INDUSTRY-UNIVERSITY COOPERATION FOUNDATION HANYANG …, priority 2017, dated 2023)",
  "key": {"ErbB-PI3K-AKT signaling": {"test_system": "ErbB-PI3K-AKT signaling", "test": "Immunoblotting / ELISA of ErbB signaling and ErbB ligand secretion in BT474 cells", "type": "cell-based, human", "settings": "MEL-18-knockdown BT474 cells; 1 μM GW280264, 24 hours", "method": "Cells were lysed in RIPA buffer, and the lysates were subjected to immunoblotting and immunoprecipitation as described in [M. H. Cho et al, Nat Commun 6, 7821(2015)] (60). For immunoblotting, the cell lysates were separated by 6% to 15% SDS-polyacrylamide gel electrophoresis (PAGE) and transferred to nitrocellulose membranes. After blocking the membranes with 5% skin milk, the membranes were incubated with primary antibodies overnight at 4° C., and then reacted with horseradish peroxidase (HRP)-conjugated secondary antibodies for 1 hour at room temperature. Bands were visualized using an ECL detection system (GE Healthcare, Chalfont St. Giles, UK).\nThe levels of the HER ligands HB-EGF and heregulinl (heregulinl, NRG1-beta1, NRG1) were measured in cell culture supernatants using ELISA (BosterBio and R&D Systems) according to the manufacturer's protocols.\nIn the case of the R&D Systems kit, an ELISA plate was coated overnight with captured antibodies and blocked with 3% BSA for 1 hour. […]\nIn the case of the BosterBio ELISA kit, the antibody-coated plate was directly filled with samples and standards, and incubated for 90 minutes. […] After this step, the plates for both kits were filled with a substrate solution for 20 minutes, the reaction was stopped using a stop solution for 20 minutes, and the absorbance was measured using a microplate reader at a wavelength of 450 nm. […]"}, "BT474 cells": {"test_system": "BT474 cells", "test": "Cell viability test (SRB) and colony formation assay in BT474 cells", "type": "cell-based, human", "settings": "MEL-18-depleted BT474 cells; 1 μM GW280264 with trastuzumab, 5 days", "method": "An in vitro toxicity test analysis kit (Sulforhodamine B based, TOX6) was purchased from Sigma-Aldrich (St. Louis, Mo., USA), and used according to the manufacturer's protocols. […] After five days, the cells were fixed by layering a TCA solution in the medium, and incubated at 4° C. for 1 hour. The fixed cells were washed with water several times, and stained with a 0.4% sulforhodamine B solution for 30 minutes. Subsequently, the stained cells were washed with a 1% acetic acid solution until remaining salts were no longer observed, and the incorporated dye was dissolved in a 10 mM Tris solution while gently stirring. The prepared plate was detected using a microplate reader at 490 nm.\nAfter 2 weeks, the cells were fixed with a 4% formaldehyde solution for 5 minutes, washed with PBS, and stained with 0.02% crystal violet (C0775, Sigma-Aldrich) for 1 to 2 hours at room temperature and then washed again. The prepared plates were dried thoroughly, and the experiment was carried out."}, "ADAM10 and ADAM17": {"test_system": "ADAM10 and ADAM17", "settings": "HER2+ metastatic breast cancer patients expressing p95-HER2; trial reported to have failed; cited from earlier work"}, "ADAM10": {"molecular_target": "T1, ADAM10 (Homo sapiens, UniProt O14672)", "T1 sequence (O14672 214-748)": "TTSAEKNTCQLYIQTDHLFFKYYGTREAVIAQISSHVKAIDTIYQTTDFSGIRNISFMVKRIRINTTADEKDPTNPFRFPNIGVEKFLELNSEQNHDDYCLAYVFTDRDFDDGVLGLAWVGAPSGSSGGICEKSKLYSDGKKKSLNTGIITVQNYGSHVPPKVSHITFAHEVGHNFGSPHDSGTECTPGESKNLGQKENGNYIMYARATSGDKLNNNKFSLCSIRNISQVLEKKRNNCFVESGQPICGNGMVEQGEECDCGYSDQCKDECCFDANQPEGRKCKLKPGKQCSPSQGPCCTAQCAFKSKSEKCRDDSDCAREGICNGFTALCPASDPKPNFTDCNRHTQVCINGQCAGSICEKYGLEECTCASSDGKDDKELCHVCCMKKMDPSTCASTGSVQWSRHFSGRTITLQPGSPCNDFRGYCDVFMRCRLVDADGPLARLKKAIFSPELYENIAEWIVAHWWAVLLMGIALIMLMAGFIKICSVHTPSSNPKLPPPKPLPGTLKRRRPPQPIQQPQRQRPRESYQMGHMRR", "settings": "cited from earlier work"}},
  "data": [
    {"smiles": "CCC[C@@H]([C@@H](CC(C)C)C(=O)N[C@@H](CCCCNC(=O)OCc1ccccc1)C(=O)Nc1nccs1)N(O)C=O", "note": "[GW280264, benzyl N-[(5S)-5-[[(2R,3S)-3-(Formylhydroxyamino)-2-(2-methylpropyl)-1-oxohexyl]amino]-6-oxo-6-(2-thiazolylamino)hexyl]-carbamate]", "values": [
      {"measurement": "activation of ErbB-PI3K-AKT signaling and secretion of ErbB ligands", "setting": "ErbB-PI3K-AKT signaling", "value": "reversing the activation of ErbB-PI3K-AKT signaling"},
      {"measurement": "anti-proliferative effect of trastuzumab on co-treatment with GW280264", "setting": "BT474 cells", "value": "resistance to trastuzumab is improved"}
    ]},
    {"smiles": "COC(=O)N1CC2(CC2)C[C@H](C(=O)NO)[C@H]1C(=O)N1CCN(c2ccccc2)CC1", "note": "[INCB7839, (6S,7S)-7-[(hydroxyamino)carbonyl]-6-[(4-phenyl-1-piperazinyl)carbonyl]-5-azaspiro[2.5]octane-5-carboxylic acid methyl ester]", "values": [
      {"measurement": "clinical therapeutic effect in combination with Herceptin", "setting": "ADAM10 and ADAM17", "value": "improves a clinical therapeutic effect of Herceptin"}
    ]},
    {"smiles": "CNC(=O)[C@@H](NC(=O)[C@H](CCCc1ccccc1)[C@H](C)N(O)C=O)C(C)(C)C", "note": "[GI254023, (2R)—N-[(1S)-2,2-dimethyl-1-[(methylamino)carbonyl]-propyl]-2-[(1S)-1-[formyl(hydroxy)amino]ethyl]-5-phenylpentanamide]", "values": [
      {"measurement": "selectivity to ADAM10 with respect to ADAM17", "setting": "ADAM10", "value": "about 100 fold"}
    ]}
  ]
}
